Test results published in publication PMC10489644, “In Vitro Evaluation of the Potential for Drug Interactions by Salidroside” (Nutrients, 2023).
Where two headings read alike, the source gives them in different places.

Key:
CYP3A4/5 = assay: CYP direct inhibition in human liver microsomes; conditions: pooled human liver microsomes
CYP1A2 [1] = assay: in vitro; conditions: CYP1A2 mRNA, 50 μM, 48 h; for fold induction at 48 h, 50 µM: human, cryopreserved human hepatocytes (sandwich culture), Mean Fold Induction
Description: (§1) The incubation solution was aspirated and replaced with incubation solution containing the same concentrations of salidroside, vehicle, or positive inducers for an additional 24 h. The total treatment period was 48 h. After the treatment period of 48 h, the incubation solution was aspirated. Hepatocytes were washed twice with pre-warmed HBSS containing 10 mM HEPES (HBSS I) and then the remaining solution was aspirated. Hepatocytes were washed once with pre-warmed HBSS I and incubated with 140 μL of RLT (lysis buffer from RNeasy 96 Kit) supplemented with 1% β-mercaptoethanol. Plates were then stored at −70 °C in a freezer until RNA analysis. Before RNA extraction, the frozen plate was thawed, and cell lysates were transferred to 96-well plates. RNA isolation was performed using a QIAcube RNA extraction system. Reverse transcription was performed to obtain cDNA. Quantification of the selective genes by real-time quantitative polymerase chain reaction (qPCR) was performed with TaqMan universal PCR Master Mix on the Bio-rad CFX384 TouchTM Real-Time PCR System. The relative change in the mRNA level of the selected target genes induced by each test compound was expressed in relation to the vehicle control sample, and fold changes in gene expression were determined by the ΔΔCt method.

CYP1A2 [2] = assay: in vitro
Description: as §1, with “The sandwich medium was removed, and the hepatocytes were treated with incubation solutions containing salidroside (1, 5, 10, and 30 µM), vehicle (0.1% DMSO), or positive inducers in triplicate for 24 h after the cultures were established. The incubation” for “The incubation”
(§2) Enzyme activity (%) = PAR with compound/PAR vehicle × 100.

CYP2B6 [3] = assay: CYP induction by enzyme activity in cryopreserved human hepatocytes (Lot# SNP)
Description: as §1, with “The sandwich medium was removed, and the hepatocytes were treated with incubation solutions containing salidroside (1, 5, 10, and 30 µM), vehicle (0.1% DMSO), or positive inducers in triplicate for 24 h after the cultures were established. The incubation” for “The incubation”
as §2

CYP2B6 [4] = assay: in vitro; conditions: CYP2B6 mRNA, 1000 µM, 48 h; for fold induction at 48 h, 1000 µM: human, Mean Fold Induction
Description: as §1, with “The sandwich medium was removed, and the hepatocytes were treated with incubation solutions containing salidroside (1, 5, 10, and 30 µM), vehicle (0.1% DMSO), or positive inducers in triplicate for 24 h after the cultures were established. The incubation” for “The incubation”

OATP1B3 = biological target: T1, OATP1B3 (Homo sapiens, UniProt Q9NPD5); assay: in vitro; conditions: human
T1 sequence (Q9NPD5 1-702): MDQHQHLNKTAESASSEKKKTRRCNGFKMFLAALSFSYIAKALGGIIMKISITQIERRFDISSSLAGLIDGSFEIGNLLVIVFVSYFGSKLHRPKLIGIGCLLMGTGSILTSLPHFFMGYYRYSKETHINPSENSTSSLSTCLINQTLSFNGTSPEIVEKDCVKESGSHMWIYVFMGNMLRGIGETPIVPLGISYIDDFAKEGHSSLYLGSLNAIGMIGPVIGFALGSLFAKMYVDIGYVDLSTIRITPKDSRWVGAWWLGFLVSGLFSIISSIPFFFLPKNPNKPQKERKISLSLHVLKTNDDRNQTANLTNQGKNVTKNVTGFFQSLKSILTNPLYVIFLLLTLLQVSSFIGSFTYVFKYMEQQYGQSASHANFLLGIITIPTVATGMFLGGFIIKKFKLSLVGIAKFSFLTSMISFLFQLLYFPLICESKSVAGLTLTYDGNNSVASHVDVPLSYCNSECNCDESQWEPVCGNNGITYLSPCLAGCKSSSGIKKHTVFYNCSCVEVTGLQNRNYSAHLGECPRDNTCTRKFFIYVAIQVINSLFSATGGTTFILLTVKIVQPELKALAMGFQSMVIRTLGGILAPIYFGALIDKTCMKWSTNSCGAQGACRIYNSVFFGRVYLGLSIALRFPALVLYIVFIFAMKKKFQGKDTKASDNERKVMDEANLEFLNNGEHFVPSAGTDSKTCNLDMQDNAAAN
Description: HEK293-OATP1B1 and OATP1B3 cells were diluted to 1 × 10^6 cells/mL with DMEM supplemented with 1% non-essential amino acid (NEAA), 10% fetal bovine serum (FBS), 1% PS solution (100 U/mL penicillin-G and 100 μg/mL streptomycin), and seeded on a 96-well BioCoat™ poly-d-lysine plate at a density of 1 × 10^6 cells/mL. […] Once the cells were anchored on the plate, the cell culture was replaced with DMEM containing 10% FBS and 1% PS solution (100 U/mL penicillin-G and 100 μg/mL streptomycin solution) and cultured one day for the uptake and inhibition studies. The cell culture medium was removed from the 96-well plate, then rinsed twice with 0.1 mL/well of pre-warmed transport buffer. The transporter cells containing pre-incubation solution were pre-incubated at 37 °C for 30 min. Then the pre-incubation solution was removed and replaced with 0.1 mL/well of dosing solution containing a substrate, respectively (blank transporter buffer containing a substrate, transport buffer containing a substrate and PC, and transport buffer containing a substrate and salidroside). Then, the transporter cells were incubated at 37 °C for 2 min. After incubation, all solutions in the cells were discarded and rinsed with 0.10 mL/well of ice-cold transport buffer (4 °C) three times. […] All samples were shaken and centrifuged at 4000 rpm at 4 °C for 15 min and the supernatant was removed for future analysis by LC-MS/MS.
as §2

recombinant human MAO-A = biological target: T2, recombinant human MAO-A (Homo sapiens, UniProt P21397); assay: MAO inhibition, kynuramine oxidation to 4-hydroxyquinoline; format: biochemical; conditions: substrate kynuramine (20 µM); mean of N = 2; read-out: IC50 MAO-A
T2 sequence (P21397 1-527): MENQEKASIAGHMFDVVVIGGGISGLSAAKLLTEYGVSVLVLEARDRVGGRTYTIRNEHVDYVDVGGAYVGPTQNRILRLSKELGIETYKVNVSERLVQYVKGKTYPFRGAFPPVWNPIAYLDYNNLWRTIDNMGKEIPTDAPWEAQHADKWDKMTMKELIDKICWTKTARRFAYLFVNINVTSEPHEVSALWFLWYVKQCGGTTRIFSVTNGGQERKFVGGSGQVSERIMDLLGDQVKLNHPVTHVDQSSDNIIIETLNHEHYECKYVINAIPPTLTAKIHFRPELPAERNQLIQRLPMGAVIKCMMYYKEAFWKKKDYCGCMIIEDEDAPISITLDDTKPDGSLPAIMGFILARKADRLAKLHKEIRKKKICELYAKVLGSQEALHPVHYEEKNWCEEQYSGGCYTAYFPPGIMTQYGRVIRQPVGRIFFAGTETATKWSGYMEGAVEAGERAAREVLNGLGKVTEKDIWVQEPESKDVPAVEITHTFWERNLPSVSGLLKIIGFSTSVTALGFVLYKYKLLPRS
Description: (§3) A total of 99 µL of substrate working solution was added into 1.1 mL incubation tubes and then 1 µL of the test compound/control working solution or DMSO (vehicle control) was added, mixed well, and pre-incubated at 37 °C for 5 min. MAO-A (0.005 mg/mL) and MAO-B (0.02 mg/mL) were pre-incubated in the working solution at 37 °C for 5 min. A total of 100 µL of pre-incubated MAO-A or MAO-B working solution was added to incubation tubes to start the reaction, mixed well, and incubated at 37 °C for 15 min. […] All samples were centrifuged at 4000 rpm at 4 °C for 15 min, then 100 µL supernatant with 100 µL of water was transferred for LC-MS/MS analysis.
as §2
(§4) The oxidation of kynuramine to 4-hydroxyquinoline generated was the in vitro marker reaction of MAO-A and MAO-B enzymes.

recombinant human MAO-B = biological target: T3, recombinant human MAO-B (Homo sapiens, UniProt P27338); assay: as above; format: biochemical; conditions: substrate kynuramine (20 µM); mean of N = 2
T3 construct: purchased Corning
T3 sequence (P27338 1-520): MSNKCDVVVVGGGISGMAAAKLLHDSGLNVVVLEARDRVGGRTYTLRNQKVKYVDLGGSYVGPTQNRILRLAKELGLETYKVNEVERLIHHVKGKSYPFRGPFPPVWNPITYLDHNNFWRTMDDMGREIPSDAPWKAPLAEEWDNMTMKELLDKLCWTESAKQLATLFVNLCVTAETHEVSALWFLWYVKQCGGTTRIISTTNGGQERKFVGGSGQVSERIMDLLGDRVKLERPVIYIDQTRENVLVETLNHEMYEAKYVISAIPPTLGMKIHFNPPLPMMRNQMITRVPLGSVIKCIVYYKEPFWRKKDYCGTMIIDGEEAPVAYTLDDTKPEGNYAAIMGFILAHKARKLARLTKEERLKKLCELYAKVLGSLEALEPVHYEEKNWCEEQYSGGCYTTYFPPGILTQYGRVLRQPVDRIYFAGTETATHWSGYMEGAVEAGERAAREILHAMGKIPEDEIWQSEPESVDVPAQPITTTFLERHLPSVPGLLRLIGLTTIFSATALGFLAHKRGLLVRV
Description: as §3, §2, §4

MAO-B = tested on: MAO-B; set-up: method as in PMID 19168123; conditions: isolated compound at 10 µM; cited from earlier work

For CC(=O)N1CCN(c2ccc(OCC3COC(Cn4ccnc4)(c4ccc(Cl)cc4Cl)O3)cc2)CC1 (stereo not shown) [Ketoconazole, ketoconazole], the IC50 at 10 min (CYP3A4/5; probe midazolam) was 27 nM and the IC50 at 10 min (CYP3A4/5; probe testosterone) was 18.3 nM.

With COc1ccc2[nH]c([S+]([O-])Cc3ncc(C)c(OC)c3C)nc2c1 (stereo not shown) [OME, omeprazole, reference compound] the “% Positive Control” value (CYP1A2 [1]; Lot# 1911442) was 100%, the “% Positive Control” value (CYP1A2 [1]; Lot# MWB) was 100% and the “% Positive Control” value (CYP1A2 [1]; Lot# RFM) was 100%. The fold induction at 48 h, 50 µM (CYP1A2 [1]; Lot# 1911442) was 10, the fold induction at 48 h, 50 µM (CYP1A2 [1]; Lot# MWB) was 24 and the fold induction at 48 h, 50 µM (CYP1A2 [1]; Lot# RFM) was 19. For the same molecule, the fold induction at 48 h, 50 µM (CYP1A2 [2]) was 3.55 and the “% of Positive Control” value (CYP1A2 [2]; CYP1A2 activity, Lot# SNP, 50 µM) was 100%.

In the case of CCC1(c2ccccc2)C(=O)NC(=O)NC1=O [PB, phenobarbital, reference compound], the “% of Positive Control” value (CYP2B6 [3]; CYP2B6 activity, Lot# SNP, 1000 µM) is reported as 100%, the fold induction at 48 h, 1000 µM (CYP2B6 [3]; human) is reported as 5.69 and the “% Positive Control” value (CYP2B6 [4]; Lot# 1911442) is reported as 100%. The “% Positive Control” value (CYP2B6 [4]; Lot# MWB) was 100%, the “% Positive Control” value (CYP2B6 [4]; Lot# RFM) was 100% and the fold induction at 48 h, 1000 µM (CYP2B6 [4]; Lot# 1911442) was 13.6. It also gave a fold induction at 48 h, 1000 µM (CYP2B6 [4]; Lot# MWB) of 14.7 and a fold induction at 48 h, 1000 µM (CYP2B6 [4]; Lot# RFM) of 8.81.

CO[C@H]1/C=C/O[C@@]2(C)Oc3c(C)c(O)c4c(O)c(c(/C=N/N5CCN(C)CC5)c(O)c4c3C2=O)NC(=O)/C(C)=C\C=C\[C@H](C)[C@H](O)[C@@H](C)[C@@H](O)[C@@H](C)[C@H](OC(C)=O)[C@@H]1C [RIF, rifampicin, reference compound] showed an IC50 at 2 min (OATP1B3) of 1540 nM.

Work on Cc1oncc1C(=O)Nc1ccc(C(F)(F)F)cc1 [leflunomide, reference compound] yielded an IC50 (recombinant human MAO-A) of 13800 nM and an IC50 (recombinant human MAO-B) of 7400 nM.

In the case of CC(C)=CC[C@H](O)/C(C)=C/CO[C@@H]1O[C@H](CO)[C@@H](O)[C@H](O)[C@H]1O [rosirdin, reference compound], the “inhibition of MAO-B” value (MAO-B) is listed as 83.8%.
